According to ChEMBL document CHEMBL1123909, “New inhibitors of human renin that contain novel Leu-Val replacements” (J Med Chem, 1987):

Assays:
Renin (Homo sapiens) [1] = biological target: T1, Renin (Homo sapiens) (UniProt P00797); assay: Inhibition of human renal renin at the concentration of 10e-5 M.
T1 sequence (whole entry): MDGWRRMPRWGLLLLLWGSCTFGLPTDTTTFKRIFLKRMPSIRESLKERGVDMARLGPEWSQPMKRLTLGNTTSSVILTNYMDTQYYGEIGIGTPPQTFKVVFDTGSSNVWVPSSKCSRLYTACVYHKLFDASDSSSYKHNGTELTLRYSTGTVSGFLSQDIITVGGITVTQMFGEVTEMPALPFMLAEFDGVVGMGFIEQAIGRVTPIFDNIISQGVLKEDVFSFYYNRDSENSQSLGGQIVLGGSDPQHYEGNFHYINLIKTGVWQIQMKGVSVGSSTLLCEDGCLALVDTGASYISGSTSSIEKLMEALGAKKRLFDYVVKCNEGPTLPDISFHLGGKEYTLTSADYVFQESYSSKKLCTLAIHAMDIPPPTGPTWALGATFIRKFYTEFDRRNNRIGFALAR

Pepsin A (Sus scrofa) = Pepsin A (Sus scrofa) (UniProt P00791); assay: Inhibition of porcine pepsin; design: concentration or dose not given beside the values; conditions: concentration not given here
Renin (Homo sapiens) [2] = biological target: T1, Renin (Homo sapiens); assay: The compound was tested for inhibition of human renal renin at the concentration of 10e-6 M
Renin [3] = biological target: T2, Renin (Homo sapiens, UniProt P00797); assay: Inhibition of human renal renin at the pH optimum 6.0.
T2 sequence (P00797 whole entry): T1 sequence (whole entry)

Renin [4] = biological target: T2, Renin; assay: The compound was tested for inhibition of human renal renin at the pH optimum 7.4
Renin (Homo sapiens) [5] = biological target: T1, Renin (Homo sapiens); assay: The compound was tested for inhibition of human renal renin at the concentration of 10e-7 M
Renin (Homo sapiens) [6] = biological target: T1, Renin (Homo sapiens); assay: The compound was tested for inhibition of human renal renin at the concentration of 10e-5 M (compound with OH epimer)
Renin (Homo sapiens) [7] = biological target: T1, Renin (Homo sapiens); assay: The compound was tested for inhibition of human renal renin at the concentration of 10e-5 M (2:1 mixture of S:R diastereomers at the carbon bearing the hydroxyl group.

Chain of Pepsin A (Sus scrofa) (P00791 60-385 limits assumed): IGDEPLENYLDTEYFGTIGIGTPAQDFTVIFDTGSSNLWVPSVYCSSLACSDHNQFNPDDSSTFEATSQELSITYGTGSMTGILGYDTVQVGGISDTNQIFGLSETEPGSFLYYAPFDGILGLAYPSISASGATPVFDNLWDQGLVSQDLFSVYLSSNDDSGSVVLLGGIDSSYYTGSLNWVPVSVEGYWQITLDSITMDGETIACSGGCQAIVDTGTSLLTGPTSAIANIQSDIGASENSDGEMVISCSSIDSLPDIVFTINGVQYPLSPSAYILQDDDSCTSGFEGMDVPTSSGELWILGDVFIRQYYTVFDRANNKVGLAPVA

Row | SMILES | inhibition (Renin (Homo sapiens) [1]) | IC50 (Renin [3]) | also measured
1 | CC(C)C[C@@H](NC(=O)[C@H](C)NC(=O)[C@H](Cc1ccccc1)NC(=O)OC(C)(C)C)[C@H](O)CNC(C)C | 5% | – | –
2 | CC(C)C[C@@H](NC(=O)[C@H](C)NC(=O)[C@H](Cc1ccccc1)NC(=O)OC(C)(C)C)[C@H](O)CSc1ccc(Br)cc1 | 21% | – | –
3 | CC(C)C[C@@H](NC(=O)[C@H](C)NC(=O)[C@H](Cc1ccccc1)NC(=O)OC(C)(C)C)[C@H](O)COc1ccccc1 | 48% | – | inhibition (Pepsin A (Sus scrofa)): 27%
4 | CC(C)CC[C@@H](O)[C@@H](CC(C)C)NC(=O)[C@H](Cc1c[nH]cn1)NC(=O)[C@H](Cc1ccc2ccccc2c1)NC(=O)OC(C)(C)C | – | 600 nM | inhibition (Renin (Homo sapiens) [2]): 87%
5 | CC(C)C[C@@H](NC(=O)[C@H](Cc1c[nH]cn1)NC(=O)[C@H](Cc1ccccc1)NC(=O)OC(C)(C)C)[C@H](O)CS(=O)(=O)CC(C)C | 98% | – | IC50 (Renin [4]): 350 nM
6 | CC(C)C[C@@H](NC(=O)[C@H](C)NC(=O)[C@H](Cc1ccccc1)NC(=O)OC(C)(C)C)[C@H](O)CSCc1cccc2ccccc12 | 48% | – | –
7 | CC(C)C[C@@H](NC(=O)[C@H](C)NC(=O)[C@H](Cc1ccccc1)NC(=O)OC(C)(C)C)[C@H](O)CSC1CCCCC1 | 94% | 800 nM | inhibition (Pepsin A (Sus scrofa)): 100%
8 | CC(C)C[C@@H](NC(=O)[C@H](C)NC(=O)[C@H](Cc1ccccc1)NC(=O)OC(C)(C)C)[C@H](O)CSc1ccc(C(C)(C)C)cc1 | 15% | – | –
9 | CC(C)C[C@@H](NC(=O)[C@H](C)NC(=O)[C@H](Cc1ccccc1)NC(=O)OC(C)(C)C)[C@H](O)CSC(C)(C)C | 88% | 3000 nM | –
10 | CC(C)C[C@@H](NC(=O)[C@H](C)NC(=O)[C@H](Cc1ccccc1)NC(=O)OC(C)(C)C)[C@H](O)COC(C)C | 54% | 7000 nM | –
11 | CC(C)C[C@@H](NC(=O)[C@H](Cc1c[nH]cn1)NC(=O)[C@H](Cc1ccccc1)NC(=O)OC(C)(C)C)[C@H](O)CSC(C)C | – | 81 nM | inhibition (Renin (Homo sapiens) [2]): 92%; inhibition (Renin (Homo sapiens) [5]): 54%
12 | CC(C)C[C@@H](NC(=O)[C@H](C)NC(=O)[C@H](Cc1ccccc1)NC(=O)OC(C)(C)C)[C@H](O)C[S+]([O-])C1CCCCC1 (some centres undefined) | 46% | – | –
13 | CC(C)C[C@@H](NC(=O)[C@H](Cc1ccccc1)NC(=O)[C@H](Cc1ccccc1)NC(=O)OC(C)(C)C)[C@H](O)CSc1ccccc1 | 48% | – | inhibition (Pepsin A (Sus scrofa)): 11%
14 | CC(C)C[C@@H](NC(=O)[C@H](Cc1ccc(O)cc1)NC(=O)[C@H](Cc1ccccc1)NC(=O)OC(C)(C)C)[C@H](O)CSc1ccccc1 | 21% | – | inhibition (Pepsin A (Sus scrofa)): 11%
15 | CC(C)CC[C@@H](O)[C@H](CC(C)C)NC(=O)[C@H](C)NC(=O)[C@H](Cc1ccccc1)NC(=O)OC(C)(C)C | – | – | inhibition (Renin (Homo sapiens) [6]): 16%
16 | CC(C)C[C@@H](NC(=O)[C@H](Cc1c[nH]cn1)NC(=O)[C@H](Cc1ccccc1)NC(=O)OC(C)(C)C)[C@H](O)CNC(C)C | 35% | – | –
17 | CC(C)CCC[C@@H](O)[C@@H](CC(C)C)NC(=O)[C@H](C)NC(=O)[C@H](Cc1ccccc1)NC(=O)OC(C)(C)C | 71% | 3500 nM | –
18 | CC(C)C[C@@H](NC(=O)[C@H](C)NC(=O)[C@H](Cc1ccccc1)NC(=O)OC(C)(C)C)[C@H](O)CSC1CCCC1 | 94% | 1000 nM | –
19 | CC(C)C[C@@H](NC(=O)[C@H](C)NC(=O)[C@H](Cc1ccccc1)NC(=O)OC(C)(C)C)[C@H](O)CSc1ccccc1 | 56% | 8000 nM | –
20 | CC(C)C[C@@H](NC(=O)[C@H](C)NC(=O)[C@H](Cc1ccccc1)NC(=O)OC(C)(C)C)[C@H](O)CSCCCc1ccccc1 | 88% | 1000 nM | inhibition (Pepsin A (Sus scrofa)): 74%
21 | CC(C)C[C@@H](NC(=O)[C@H](C)NC(=O)[C@H](Cc1ccccc1)NC(=O)OC(C)(C)C)[C@H](O)CSCc1ccccc1 | 57% | 10000 nM | inhibition (Pepsin A (Sus scrofa)): 96%
22 | CC(C)CCSC[C@@H](O)[C@@H](CC(C)C)NC(=O)[C@H](C)NC(=O)[C@H](Cc1ccccc1)NC(=O)OC(C)(C)C | 93% | 1500 nM | –
23 | CC(C)C[C@@H](NC(=O)[C@H](C)NC(=O)[C@H](Cc1ccccc1)NC(=O)OC(C)(C)C)[C@H](O)CSc1cccc2ccccc12 | 7% | – | –
24 | CC(C)C[C@@H](NC(=O)[C@H](C)NC(=O)[C@H](Cc1ccccc1)NC(=O)OC(C)(C)C)[C@H](O)CNc1ccccc1 | 30% | – | –
25 | CC(C)C[C@@H](NC(=O)[C@H](Cc1c[nH]cn1)NC(=O)[C@H](Cc1ccccc1)NC(=O)OC(C)(C)C)[C@H](O)CS(=O)(=O)C(C)C | 99% | 200 nM | inhibition (Pepsin A (Sus scrofa)): 3%

Row | SMILES | inhibition (Renin (Homo sapiens) [1]) | IC50 (Renin [3]) | also measured
26 | CC(C)C[C@@H](NC(=O)[C@H](Cc1c[nH]cn1)NC(=O)[C@H](Cc1ccc2ccccc2c1)NC(=O)OC(C)(C)C)[C@H](O)CSC1CCCCC1 | – | – | inhibition (Pepsin A (Sus scrofa)): 0%; IC50 (Renin [4]): 40 nM; inhibition (Renin (Homo sapiens) [5]): 85%
27 | CC(C)C[C@H](NC(=O)[C@H](Cc1c[nH]cn1)NC(=O)[C@H](Cc1ccccc1)NC(=O)OC(C)(C)C)[C@@H](O)CSC1CCCCC1 (stereo in doubt; 56) [listing 1 of 2 here] | – | 520 nM | –
28 | CC(C)COC[C@@H](O)[C@@H](CC(C)C)NC(=O)[C@H](Cc1c[nH]cn1)NC(=O)[C@H](Cc1ccccc1)NC(=O)OC(C)(C)C | 94% | 650 nM | inhibition (Pepsin A (Sus scrofa)): 0%
29 | CC(C)C[C@H](NC(=O)[C@H](C)NC(=O)[C@H](Cc1ccccc1)NC(=O)OC(C)(C)C)[C@@H](O)CSC(C)C | 90% | 700 nM | inhibition (Pepsin A (Sus scrofa)): 73%
30 | CC(C)C[C@@H](NC(=O)[C@H](C)NC(=O)[C@H](Cc1ccccc1)NC(=O)OC(C)(C)C)[C@H](O)CS(=O)(=O)c1ccccc1 | 25% | – | –
31 | CC(C)C[C@@H](NC(=O)[C@H](C)NC(=O)[C@H](Cc1ccccc1)NC(=O)OC(C)(C)C)[C@H](O)C[S+]([O-])c1ccccc1 (some centres undefined) | 12% | – | –
32 | CC(C)CC[C@@H](O)[C@@H](CC(C)C)NC(=O)[C@H](Cc1c[nH]cn1)NC(=O)[C@H](Cc1ccccc1)NC(=O)OC(C)(C)C | 89% | 1500 nM | –
33 | CC(C)CSC[C@@H](O)[C@@H](CC(C)C)NC(=O)[C@H](C)NC(=O)[C@H](Cc1ccccc1)NC(=O)OC(C)(C)C | 89% | 1500 nM | –
34 | CC(C)CCC[C@@H](O)[C@@H](CC(C)C)NC(=O)[C@H](Cc1c[nH]cn1)NC(=O)[C@H](Cc1ccccc1)NC(=O)OC(C)(C)C | 97% | 600 nM | –
35 | CC(C)C[C@@H](NC(=O)[C@H](C)NC(=O)[C@H](Cc1ccccc1)NC(=O)OC(C)(C)C)[C@H](O)CSc1ccc2ccccc2c1 | 23% | – | –
36 | CC(C)CCS(=O)(=O)C[C@@H](O)[C@@H](CC(C)C)NC(=O)[C@H](Cc1c[nH]cn1)NC(=O)[C@H](Cc1ccccc1)NC(=O)OC(C)(C)C | 94% | – | IC50 (Renin [4]): 500 nM
37 | CC(C)COC[C@@H](O)[C@@H](CC(C)C)NC(=O)[C@H](C)NC(=O)[C@H](Cc1ccccc1)NC(=O)OC(C)(C)C | 59% | 7000 nM | inhibition (Pepsin A (Sus scrofa)): 68%
38 | CC(C)C[C@@H](NC(=O)[C@H](Cc1c[nH]cn1)NC(=O)[C@H](Cc1ccccc1)NC(=O)OC(C)(C)C)[C@H](O)CS(=O)(=O)C1CCCCC1 | – | 90 nM | inhibition (Renin (Homo sapiens) [2]): 92%; inhibition (Renin (Homo sapiens) [5]): 51%
39 | CC(C)CC[C@H](O)[C@H](CC(C)C)NC(=O)[C@H](C)NC(=O)[C@H](Cc1ccccc1)NC(=O)OC(C)(C)C | 85% | 2000 nM | –
40 | CC(C)C[C@@H](NC(=O)[C@H](Cc1c[nH]cn1)NC(=O)[C@H](Cc1ccccc1)NC(=O)OC(C)(C)C)[C@H](O)COC(C)C | 85% | 1500 nM | inhibition (Pepsin A (Sus scrofa)): 0%
41 | CC(C)C[C@@H](NC(=O)[C@H](Cc1c[nH]cn1)NC(=O)[C@H](Cc1ccccc1)NC(=O)OC(C)(C)C)[C@H](O)CSc1ccccc1 | 96% | 960 nM | inhibition (Pepsin A (Sus scrofa)): 0%
42 | CC(C)C[C@H](NC(=O)[C@H](Cc1c[nH]cn1)NC(=O)[C@H](Cc1ccccc1)NC(=O)OC(C)(C)C)[C@@H](O)CSC1CCCCC1 (stereo in doubt; 56) [listing 2 of 2 here] | – | – | inhibition (Renin (Homo sapiens) [6]): 95%
43 | CC(C)CC[C@@H](O)[C@@H](CC(C)C)NC(=O)[C@H](Cc1c[nH]cn1)NC(=O)[C@H](Cc1cccc2ccccc12)NC(=O)OC(C)(C)C | – | – | inhibition (Renin (Homo sapiens) [2]): 93%; inhibition (Pepsin A (Sus scrofa)): 6%; IC50 (Renin [4]): 150 nM
44 | CC(C)C[C@H](NC(=O)[C@H](Cc1c[nH]cn1)NC(=O)[C@H](Cc1ccccc1)NC(=O)OC(C)(C)C)[C@@H](O)CSC1CCCCC1 (stereo in doubt; 55) [listing 1 of 2 here] | – | – | inhibition (Renin (Homo sapiens) [5]): 78%
45 | CC(C)C[C@@H](NC(=O)[C@H](C)NC(=O)[C@H](Cc1ccccc1)NC(=O)OC(C)(C)C)[C@H](O)CSCCc1ccccc1 | 73% | 4500 nM | –
46 | CC(C)C[C@@H](NC(=O)[C@H](C)NC(=O)[C@H](Cc1ccccc1)NC(=O)OC(C)(C)C)[C@H](O)CCc1ccccc1 | – | – | inhibition (Renin (Homo sapiens) [7]): 35%
47 | CC(C)C[C@H](NC(=O)[C@H](Cc1c[nH]cn1)NC(=O)[C@H](Cc1ccccc1)NC(=O)OC(C)(C)C)[C@@H](O)CSC1CCCCC1 (stereo in doubt; 55) [listing 2 of 2 here] | – | 35 nM | –
48 | CC(C)C[C@@H](NC(=O)[C@H](C)NC(=O)[C@H](Cc1ccccc1)NC(=O)OC(C)(C)C)[C@H](O)CS(=O)(=O)C1CCCCC1 | 76% | 2000 nM | –
49 | CC(C)C[C@@H](NC(=O)[C@H](Cc1c[nH]cn1)NC(=O)[C@H](Cc1cccc2ccccc12)NC(=O)OC(C)(C)C)[C@H](O)CSC1CCCCC1 | – | 13 nM | inhibition (Renin (Homo sapiens) [5]): 85%
